Laboratory results taken from patent publication US9949976B2, “Kinase inhibitor and use thereof” (Sihuan Pharmaceutical Holdings Group Ltd., priority 2013, dated 2018).
Like-named read-outs stand apart in the source and are kept apart here.

Legend:
[1] = Pharmacokinetics in nude mouse (IV and PO); assay type: in vivo; conditions: female, BALB/c nude, plasma; for Vd: read-out: Vss; for bioavailability: read-out: F (absolute bioavailability)
Method: Test animal: female nude mouse (BALB/c); control agent: 3 mice/administration route at each time point, weight: 22-25 g/mouse; Compound 1: 3 mice/administration route at each time point, weight: 22-25 g/mouse; Compound 6-1: 6 mice/administration route/test compound, weight: 18-26 g/mouse.
Control agent/Compound 1, IV administration group: before administration, 0.083, 0.25, 0.5, 1, 2, 4, 6, 8, 24, and 30 h after administration; PO administration group (10 mg/kg): before administration, 0.167, 0.5, 1, 2, 4, 6, 8, 24, and 30 h after administration.
Compound 1, PO administration group (100 mg/kg): 0.167, 0.5, 1, 2, 4, 6, 8, 24, 30, and 48 h after administration.
Compound 6-1, IV administration group (2.5 mg/kg) and PO administration group (10 mg/kg): 0.083, 0.25, 0.5, 1, 2, 4, 6, 8 and 24 h after administration; Compound 6-1, PO administration group (100 mg/kg): 0.083, 0.25, 0.5, 1, 2, 4, 6, 8, 24, 30, 48 h after administration.
Control agent/Compound 1: 300 μL whole blood was collected from intraocular canthus at each time point, and was centrifuged at 8000 r/min for 6 min in a high speed centrifuge to separate the plasma; the plasma was stored in a refrigerator at −80° C. Compound 6-1: 60 μL whole blood was collected from intraocular canthus at each time point, and was placed in an anticoagulation tube containing anticoagulant agent K2EDTA; the blood sample was centrifuged at 8000 r/min for 6 min to obtain a plasma sample.
The plasma samples of control agent and compound 1 were analyzed by precipitation of protein: to 50 μL plasma, 200 μL internal standard (acetonitrile solution containing 500 ng/mL Warfarin) was added; the resultant mixture was vortexed for 3 min at 1500 r/min, and centrifuged for 5 min at 13000 r/min; to 100 μL supernatant, 400 μL water was added; the resultant mixture was mixed homogeneously under vortexing and analyzed by LC-MS/MS.
The plasma sample of compound 6-1 was analyzed by precipitation of protein: to a suitable amount of plasma, a given volume of internal standard solution was added; the resultant mixture was vortexed and centrifuged; the supernatant was diluted by adding a given volume of water; the resultant mixture was mixed homogeneously under vortexing and analyzed by LC-MS/MS.

[2] = Linear pharmacokinetics in rat (PO); assay type: in vivo, male SD rat; conditions: for AUC(0-t) / Cmax / Tmax: male, SD, plasma
Method: Test animal: male SD rat, 3 rats/administration dose/test compound, weight: 200-240 g/rat.
100 μL whole blood was collected from caudal vein at each time point, added to an anticoagulation tube containing K2EDTA, and centrifuged at 8000 r/min in a high speed centrifuge for 6 min to separate the plasma; the plasma was stored in a refrigerator at −80° C.
The plasma samples of control agent and compound 1 were analyzed by precipitation of protein: to 30 μL plasma, 200 μL internal standard (acetonitrile solution containing 50 ng/mL PD0332991, the formula of which is
[drawing 62] prepared by referring to the method in Patent CN101001857A) was added; the resultant mixture was vortexed for 10 min at 1500 r/min, and centrifuged for 20 min at 4000 r/min; to 100 μL supernatant, 100 μL water was added; the resultant mixture was mixed homogeneously under vortexing and analyzed by LC-MS/MS.

CDK6/D3 = CDK6/D3 (Homo sapiens, UniProt Q00534); test: In vitro enzyme-inhibiting activity, Caliper Mobility Shift method; assay type: biochemical; conditions: read-out: CDK enzyme-inhibiting activity IC50 CDK6/D3
CDK6/D3, sequence (Q00534 whole entry): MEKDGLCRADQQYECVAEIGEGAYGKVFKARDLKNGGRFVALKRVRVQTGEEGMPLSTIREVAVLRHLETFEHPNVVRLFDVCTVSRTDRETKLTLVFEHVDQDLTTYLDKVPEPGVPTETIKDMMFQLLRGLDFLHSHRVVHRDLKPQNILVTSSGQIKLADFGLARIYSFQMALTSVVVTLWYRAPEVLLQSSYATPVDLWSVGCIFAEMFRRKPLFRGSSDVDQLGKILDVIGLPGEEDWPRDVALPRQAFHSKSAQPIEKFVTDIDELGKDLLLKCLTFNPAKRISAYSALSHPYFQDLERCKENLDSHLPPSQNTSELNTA
CDK6/D3, sequence (P30281 whole entry partner): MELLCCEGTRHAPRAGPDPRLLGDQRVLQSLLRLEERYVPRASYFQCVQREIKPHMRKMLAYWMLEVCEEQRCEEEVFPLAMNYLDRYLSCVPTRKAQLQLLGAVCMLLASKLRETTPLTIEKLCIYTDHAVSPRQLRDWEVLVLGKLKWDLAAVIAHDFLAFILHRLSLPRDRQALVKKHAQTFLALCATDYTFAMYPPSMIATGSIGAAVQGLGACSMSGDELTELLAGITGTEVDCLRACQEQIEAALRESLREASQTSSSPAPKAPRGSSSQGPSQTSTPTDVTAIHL
Method: Measurement of activity for inhibiting CDK4/6 kinase by Caliper Mobility Shift method.
50 mL stock solution containing 1000 mM HEPES (pH 7.5), and 50 μL stock solution containing 30% Brij-35, were added to 949.95 mL ultra pure water, and the resultant mixture was mixed homogeneously.
25 mL stock solution containing 4% Coating Reagent #3 (provided with the 12-sipper chip used in Caliper device), 50 mL stock solution containing 1000 mM HEPES (pH 7.5), 50 mL stock solution containing 0.5 M EDTA, and 0.25 mL stock solution containing 30% Brij-35, were added to 374.75 mL ultra pure water, and the resultant mixture was mixed homogeneously.
18 μL CDK6/D3 enzyme solution, and 14 μL stock solution containing 1M DTT were added to 2768 μL 1-fold CDK6 kinase buffer, and the resultant mixture was mixed homogeneously.
23 μL stock solution containing 100 mM ATP, 75 μL stock solution containing 1M MgCl2, and 75 μL FAM-tagged polypeptide 8, were added to 2827 μL 1-fold CDK6 kinase buffer, and the resultant mixture was mixed homogeneously.
DMSO solution containing 10 mM test compound was diluted with DMSO to a solution containing 50 μM test compound (which was used as a stock solution).
1) 5 μL 5-fold test compound solution and 10 μL 2.5-fold kinase solution were added to the corresponding wells in a 384-well plate, and incubated at room temperature for 10 min.
2) To the corresponding wells, 10 μL 2.5-fold polypeptide solution was added to start the enzymatic reaction, and incubation was performed at 28° C. for 5 h.
To the corresponding wells, 25 μL stop solution was added to stop the reaction.
The data was read by Caliper device, the inhibition rate was calculated by the following formula, and curve fitting was carried out by GraphPad5.0 software to get IC50 value. Inhibition rate=(maximal value−sample value)/(maximal value−minimal value)×100, wherein, maximal value: positive control without addition of test compound; minimal value: negative control without addition of enzyme.

[3] = PK in Colo-205 subcutaneous tumor model of BALB/c nude mouse; assay type: in vivo; conditions: female, plasma, Colo-205 tumor-bearing nude mouse, PO QD 22 days, after last administration
Method: Test animal: female nude mouse (BALB/c), 8 mice/dose group/test compound, weight: 19-27 g/mouse.
COLO205 cancer cells were cultured in RPMI-1640 medium containing inactivated 10% fetal bovine serum, 100 U/mL penicillin, 100 μg/mL streptomycin and 2 mM glutamine, in a 37° C., 5% CO2 incubator. The initial concentration of cell culture was 5×10^5 cells/mL, and the cells were transferred to other bottles every 3 or 4 days and passaged. Tumor cells in exponential growth phase were used for in vivo tumor seeding.
COLO205 tumor cells suspended in PBS were seeded subcutaneously to right lateral thorax of experimental animal at 1×10^7 cells/0.1 mL, and the animal was sacrificed when the tumor grew to a volume of 800 mm^3 to 1000 mm^3; under aseptic conditions, tumors were peeled off, and necrotic tissues were removed; the well-grown tumor tissues were selected; the tumor cells were isolated and subjected to primary culture and proliferation, and then were subcutaneously seeded to animal. The tumor cells were passaged for two generations in mice by this method, and the primary culture cells were seeded subcutaneously to right lateral thorax of experimental animal, at 5×10^6 cells/0.1 mL per animal. When tumor grew to a volume of about 100 mm^3, the animals were grouped and administered. For oral administration, the administration volume is 0.1 mL/10 g body weight of animal.
Blood collection: blood was collected from intraocular canthus. After the last administration (22th Day) of control agent and compound 1, blood/tumor was collected at the same time points, wherein 8 nude mice for each dose group were divided into A and B groups
A group (No. 1-4): blood was collected at 15 min, 1 h and 2 h, and the mouse was sacrificed after blood collection at 2 h;
B group (No. 5-8): blood was collected at 4 h, 8 h and 24 h, and the mouse was sacrificed after blood collection at 24 h;
100 μL whole blood at each time point was collected and added to an anticoagulation tube containing K2EDTA, and centrifuged at 4500 r/min at 4° C. in a high speed centrifuge for 5 min to separate the plasma; the plasma was stored in a refrigerator at −80° C.
The plasma samples of control agent and compound 1 were analyzed by precipitation of protein: to 50 μL plasma, 150 μL internal standard (acetonitrile solution containing 50 ng/mL dexamethasone) was added; the resultant mixture was vortexed at 1500 r/min for 3 min, and centrifuged at 4000 r/min for 20 min; to 100 μL supernatant, 100 μL water was added; the resultant mixture was mixed homogeneously under vortexing and analyzed by LC-MS/MS.

| Structure (SMILES) | AUC(0-t) ([1]; IV, 5 mg/kg) | clearance ([1]; IV, 5 mg/kg) | Vd ([1]; IV, 5 mg/kg) | AUC(0-t) ([1]; PO, 10 mg/kg) | Cmax ([1]; PO, 10 mg/kg) | Tmax ([1]; PO, 10 mg/kg) | bioavailability ([1]; PO, 10 mg/kg) | AUC(0-t) ([2]; 15 mg/kg) | Cmax ([2]; 15 mg/kg) | Tmax ([2]; 15 mg/kg) | AUC(0-t) ([2]; 45 mg/kg) | Cmax ([2]; 45 mg/kg) | Tmax ([2]; 45 mg/kg) | AUC(0-t) ([2]; 135 mg/kg) | Cmax ([2]; 135 mg/kg) | Tmax ([2]; 135 mg/kg) | AUC(0-t) ([3]; 25 mg/kg) | Cmax ([3]; 25 mg/kg) | Tmax ([3]; 25 mg/kg) | AUC(0-t) ([3]; 100 mg/kg) | other results |
| --- | --- | --- | --- | --- | --- | --- | --- | --- | --- | --- | --- | --- | --- | --- | --- | --- | --- | --- | --- | --- | --- |
| CCN1CCN(Cc2cnc(Nc3cc(-c4cc(F)c5nc(C)n(C(C)C)c5c4)c(F)cn3)nc2)CC1 [Compound 1, 5-((4-ethylpiperazin-1-yl)methyl)-N-(5-fluoro-4-(4-fluoro-1-isopropyl-2-methyl-1H-benzo[d]imidazol-6-yl)pyridin-2-yl)pyrimidin-2-amine] | 2080 ng·h/mL | 38.2 mL/min/kg | 4.61 L/kg | 2760 ng·h/mL | 675 ng/mL | 2 h | 65.5% | 12600 ng·h/mL | 941 ng/mL | 4 h | 37700 ng·h/mL | 1580 ng/mL | 4 h | 136000 ng·h/mL | 2410 ng/mL | 24 h | 12300 ng·h/mL | 1140 ng/mL | 2 h | 48300 ng·h/mL | AUC(0-t) ([1]; PO, 100 mg/kg): 33900 ng·h/mL; Cmax ([1]; PO, 100 mg/kg): 3080 ng/mL; Tmax ([1]; PO, 100 mg/kg): 2 h; bioavailability ([1]; PO, 100 mg/kg): 77.9%; linear pharmacokinetic properties ([2]; 15-135 mg/kg, AUClast increases with dose in a linear manner): good linear pharmacokinetic properties; IC50 (CDK6/D3): 16 nM; Cmax ([3]; 100 mg/kg): 2420 ng/mL; Tmax ([3]; 100 mg/kg): 8 h |
| CCN1CCN(Cc2ccc(Nc3ncc(F)c(-c4cc(F)c5nc(C)n(C(C)C)c5c4)n3)nc2)CC1 [LY2835219, reference compound] | 1590 ng·h/mL | 50.2 mL/min/kg | 5.79 L/kg | 1310 ng·h/mL | 368 ng/mL | 0.5 h | 41.1% | 9690 ng·h/mL | 504 ng/mL | 4 h | 32600 ng·h/mL | 860 ng/mL | 4 h | 97600 ng·h/mL | 1370 ng/mL | 24 h | 9120 ng·h/mL | 733 ng/mL | 4 h | 23000 ng·h/mL | Cmax ([3]; 100 mg/kg): 1080 ng/mL; Tmax ([3]; 100 mg/kg): 8 h |
